Earlier results on one molecule are cited in patent US20050053655A1, “Rapid disintegrating tablets (RDTs) for pharmaceutical use and method for preparing the same” (Pharmaceutical Industry Technology and Development Center, priority 2003, published 2005).

Take `NC(N)=Nc1nc(CSCCC(N)=NS(N)(=O)=O)cs1` [Famotidine, famotidine]: the solubility in water entry is given as “very slightly soluble in water”.
